Test system: NMDAR-mediated currents in the ACC
Test: NMDAR-mediated EPSCs in the ACC
Type: cell-based, mouse
Procedure: Coronal brain slices ([…]) from 6-8-week-old C57BL/6 mice, containing ACC or hippocampus, were prepared using standard methods (Wei et al., 2001). Slices were transferred to a submerged recovery chamber containing oxygenated (95% O2 and 5% CO2) artificial cerebrospinal fluid (ACSF) (in mM: 124 NaCl, 4.4 KCl, 2 CaCl2, 1 MgSO4, 25 NaHCO3, 1 NaH2PO4, 10 glucose) at room temperature for at least 1 h.
Experiments were performed in a recording chamber on the stage of an Axioskop 2FS microscope with infrared DIC optics for visualizing whole-cell patch clamp recordings. EPSCs were recorded from layer II-III neurons using an Axon 200B amplifier (Axon Instruments, CA) and stimulations were delivered using a bipolar tungsten stimulating electrode placed in layer V of the ACC. In hippocampal slices, EPSCs were evoked by stimulating the Schaffer collateral-commissural pathway. EPSCs were induced by repetitive stimulations at 0.02 Hz and neurons were voltage clamped at −70 mV. The recording pipettes (3-5 MΩ) were filled with solution containing (mM) 145 K-gluconate, 5 NaCl, 1 MgCl2, 0.2 EGTA, 10 HEPES, 2 Mg-ATP, and 0.1 Na3-GTP (adjusted to pH 7.2 with KOH). After obtaining stable EPSCs for 10 min, three kinds of LTP induction paradigms were used within 12 min after establishing the whole-cell configuration to prevent wash out effect on LTP induction (Tsvetkov et al., 2002). The first protocol involved paired presynaptic 80 pulses at 2 Hz with postsynaptic depolarization at +30 mV (referred to as pairing training). The second involved paired 3 presynaptic stimuli that caused 3 EPSPs (10 ms ahead) with 3 postsynaptic APs at 30 Hz, paired 15 times every 5 s (named as EPSPs-APs protocol). The third involved theta-burst stimulation (5 trains of burst with 4 pulses at 100 Hz, at 200 ms interval; repeated 4 times at intervals of 10 s; named as TBS). The NMDAR-mediated component of EPSCs was pharmacologically isolated in Mg^2+-free ACSF containing: CNQX (20 μM), glycine (1 μM) and picrotoxin (100 μM). The patch electrodes contained (in mM) 102 cesium gluconate, 5 TEA-chloride, 3.7 NaCl, 11 BAPTA, 0.2 EGTA, 20 HEPES, 2 MgATP, 0.3 NaGTP, and 5 QX-314 chloride (adjusted to pH 7.2 with CsOH). Neurons were voltage clamped at −60 mV and NMDARs-mediated EPSCs were evoked at 0.05 Hz. Picrotoxin (100 μM) was always present to block GABAA receptor-mediated inhibitory synaptic currents. The access resistance was 15-30 MΩ and was monitored throughout the experiment. Data were discarded if access resistance changed by more than 15% during an experiment. Results are expressed as means±SEM. Statistical comparisons were performed using the Student t-test.
One possible mechanism is that NR2B-containing receptors may contribute more to total NMDA currents in ACC synapses than in hippocampal synapses. […] Application of 0.1 μM or 0.4 μM NVP-AAM077 depressed total NMDAR-mediated currents by 59.0±4.3% (n=5) and 63.2±1.7% (n=6) in the ACC respectively (FIG. 5). On the other hand, application of 0.3 μM or 3 μM Ro25-6981 attenuated total NMDAR-mediated currents by 18.0±1.9% (n=5) and 18.1±3.4% (n=7) in the ACC respectively, showing that 0.3 μM Ro25-6981 was sufficient to block the NR2B-mediated currents (FIG. 5). This experiment was repeated in hippocampal CA1 neurons. […] However, unlike in the ACC, application of 0.3 μM Ro25-6981 alone potentiated, rather than blocked, total NMDAR-mediated currents by 51.3±16.4% in the hippocampus (FIG. 5).
The relative percentages of NR2A- and NR2B-mediated currents were determined by applying specific antagonists, NVP-AAM077 (0.4 μM) and Ro25-6981 (0.3 μM). The concentrations used here were based on the results from FIG. 5 and a recent study performed in the hippocampus (Liu et al., 2004). Application of NVP-AAMO77 depressed total NMDAR-mediated currents by 63.2±1.7% and the addition of Ro25-6981 to the same neuron further reduced currents by 13.7±1.4% (n=6) in the ACC (FIG. 6). […]

## C[C@@H](CN1CCC(Cc2ccccc2)CC1)[C@@H](O)c1ccc(O)cc1 [Ro25-6981]
0.3 μM Ro25-6981 added to the same neuron after 0.4 μM NVP-AAM077
  further reduction of total NMDAR-mediated currents: 13.7±1.4%
0.3 μM, applied alone or first
  depression of total NMDAR-mediated currents: 18.0±1.9%
3 μM
  depression of total NMDAR-mediated currents: 18.1±3.4%
Bath application of different doses, FIG. 5
  effect on total NMDAR-mediated currents: depressed
